# Legend:
# [1] = tested on: osteoclast formation; details: side chains of vitamin K1 or K2; Hara, K. et al.: Bone, 16, 179-184, 1995; cited from earlier work
# [2] = tested on: osteoclasts from ddY mouse co-culture; assay: Cytotoxicity against osteoclasts on a piece of dentinum; format: cell-based; details: differentiated and matured mouse osteoclasts (FIG. 11)
# Method: A still further investigation was also conducted on TRAP-positive cells formed by a co-culture system of primary osteoblast-like interstitial cells derived from the calvaria of a mouse newborn and mouse bone marrow cells. […] Effects of ACNQ on the activity of a bone re sorbing system were then investigated. Measured were the formation of resorption lacunae and cytotoxicity on a piece of dentinum in an osteoclast forming system by co-culture of primary osteoblast-like interstitial cells derived from the calvaria of the above mouse newborn and mouse bone marrow cells.
# Those osteoclast-like polykaryocytes were prepared to 4×10^3 cells/mL with αMEM medium containing 10% FBS, seeded at 100 μL/well into wells (96 wells) in which pieces of dentinum were placed, respectively, and cultured at 37° C. for 2 hours. After the culture, the individual cultures were transferred to 24 wells or 48 wells in which a culture medium was placed at 0.5 to 1.5 mL/well. At the same time, ACNQ solutions of various concentrations were added to the wells, respectively, followed by culture at 37° C. for 24 hours. […] After the staining solution was removed, resorption lacunae formed in the surface of each piece of dentinum as a result of binging by […] were counted under a microscope. […]
# [3] = tested on: osteoclast-like polykaryocytes from ddY mouse co-culture; assay: Formation of bone resorption lacunae on a piece of dentinum by osteoclasts; format: cell-based; details: 24 hours on dentinum, even at the highest concentration, 7.5 μg/mL (FIG. 11)
# Method: Investigated was the effect of ACNQ on the formation of bone resorption lacunae on a piece of dentinum by osteoclasts.
# As in the test (2) of Test 4, a culture (20 mL) containing primary osteoblast-like interstitial cells, which had been derived from the calvariae of ddY mice newborn, and bone marrow cells, which had been isolated from the femurs and shinbones of the same strain mice (males of 6 to 9 weeks of age), at a ratio of 1×10^6 cells to 1×10^7 cells in a 100 mm dish was co-cultured for 6 to 8 days on a collagen gel in αMEM medium in which 10% FEB and 10^−8 M 1α,25(OH)2D3 had been added. Medium replacement was conducted on every third days. After the culture, a 0.2% collagenase solution was added. The thus-obtained mixture was gently shaken at 37° C. for 20 minutes to digest the collagen gel, and differentiation-induced osteoclast-like polykaryocytes were collected. The count of osteoclasts obtained by this method was at most 4×10^4 cells/100 mm-dish.
# Those osteoclast-like polykaryocytes were prepared to 4×10^3 cells/mL with αMEM medium containing 10% FBS, seeded at 100 μL/well into wells (96 wells) in which pieces of dentinum were placed, respectively, and cultured at 37° C. for 2 hours. […] After the staining solution was removed, resorption lacunae formed in the surface of each piece of dentinum as a result of binging by […] were counted under a microscope. […]
# [4] = tested on: primary osteoblast-like interstitial cells and bone marrow cells of ddY mice; assay: Osteoclast formation in co-culture of mouse osteoblast-like interstitial cells and bone marrow cells; format: cell-based
# Excerpt: (2) The calvaria of ddY mice newborn were enzymatically treated (with a mixed solution of collagenase and disperse) to obtain primary osteoblast-like interstitial cells. On the other hand, bone marrow cells were isolated from the femurs and shinbones of the same strain mice (males of 6 to 9 weeks of age). The primary osteoblast-like interstitial cells and bone marrow cells were co-cultured in the presence of ACNQ to investigate differentiation induction effect of ACNQ on osteoclasts.
# Using αMEM added with 10% FBS, a culture which contained the primary osteoblast-like interstitial cells and the bone marrow cells at a cell count ratio of about 1:20 was co-cultured in the presence of 10^−8 M to 10^−10 M 1α,25(OH)2D3 for 6 to 8 days. During the culture period, ACNQ solutions of various concentrations and as a control for comparison, vitamin K2 which is known to inhibit the formation of osteoclasts, were added, respectively, upon culture medium replacement (replaced by a half of the volume of the culture medium; replaced on every third days).
# Cells, which were positive to TRAP staining and internally contained 3 or more nuclei per cell, were collected as differentiated osteoclasts. […]
# [5] = tested on: human osteoblasts (SaM-1); assay: Cytotoxicity by free LDH in culture supernatant of SaM-1 cells; format: cell-based; details: 32nd day of culture, 10^−5 M to 10^−7 M (FIG. 8)
# Method: Using “LDH-Cytotoxic Test Wako” (cytotoxicity assay kit), free LDH in each culture supernatant was measured to investigate the cytotoxicity of ACNQ. Culture supernatants on the 32nd day of culture were sampled, and subsequent to a staining reaction, their LDH concentrations were measured by using a microplate reader (540 nm).
# [6] = tested on: human osteoblasts (SaM-1); assay: Mineralization (Ca and P accumulation in extracellular matrices) of human osteoblasts; format: cell-based; details: SaM-1 cells, 32 days, 2 mM glycerophosphoric acid
# Method: Employed were cultured human osteoblasts (SaM-1), which had been established from the periosteum of an ulna of a person obtained during a surgical operation of a fractured bone. Those SaM-1 cells were equipped with all the characteristics of osteoblasts (Koshihara, Y. et al.: In Vitro Cell, Dev. Biol., 25, 37-43, 1989). SaM-1 cells are known to promote mineralization in the presence of 2 mM a-glycerophosphoric acid, depending upon the concentration of 1α,25(OH)2D3.
# SaM-1 cells of 18 PDL (population doubling level) were seeded to a 12-well plate, and cultured to a confluent state. a-Glycerophosphoric acid, a mineralization promoter, was then added to 2 mM. […]
# Ca in each extracellular matrix was quantitated by using a kit (“Calcium C Test Wako”) based on the o-cresolphthalein complexone method (OCPC method).
# After completion of the culture, the cells were washed with Hanks' solution. […] Five minutes later, the reaction mixtures were measured by an absorptiometer (570 nm)(FIG. 6).
# P in each extracellular matrix was quantitated by the method proposed by Chen et al. (Chen, P. S. et al.: Anal. Chem., 28, 1756-1758, 1956).
# 0.84% Ammonium molybdate, 2 N sulfuric acid and 10% ascorbic acid were mixed at 3:3:1 (volume ratio) to prepare a reaction reagent. The extracts (100 μL) obtained in the above-described Ca quantitation were each diluted with distilled water (800 μL). […]
# [7] = tested on: human bone marrow cells (monocytes); assay: Formation of TRAP-positive polykaryocytes in culture of human bone marrow monocytes; format: cell-based
# Method: (1) Human bone marrow cells obtained during an artificial caput replacement operation were subjected to density-gradient centrifugation to collect monocytes. Those monocytes were seeded into α-MEM medium, which contained 20% equine serum and 10^−8 M 1α,25(OH)2D3, to give 8×10^5 cells/well (079 cm^2), and were then cultured for […]. The cultures were each replaced twice a week by a half of its volume each time. Addition of ACNQ was conducted at the beginning.
# On the 16th day of culture, the cultures were treated with pronase and EDTA to eliminate stromal cells. On the following day, the cells were washed with PBS(−) and then immobilized with formalin. The formalin-immobilized cells were subjected to TRAP staining, and the TRAP-positive polykaryocyte counts of the respective wells were determined. Vitamin K1 was used as a control.
# [8] = tested on: stromal cell line ST-2 derived from mouse bone marrow; assay: Cytotoxicity of ACNQ by MTT assay in ST-2 cells; format: cell-based; details: at the peak concentration of ALP activity, 1 μg/mL (FIG. 5)
# Method: (§1) The cells were washed with PBS, and then immobilized with ethanol for 1 minute. An enzyme reaction solution (a buffer containing p-nitrophenyl phosphate, 0.1 M glycine, 1 mM MgCl2 and 0.1 mM ZnCl2 as substrates, pH 10.5) of 37° C. was added to have the cells reacted at 37° C. for 30 minutes. An equiamount of 0.05 N NaOH was added to quench the reaction. ALP activity was expressed in terms of units, with 1 unit representing the amount of p-nitrophenol formed in a minute per mg-protein as measured in terms of absorbance at 415 nm). Protein contents were determined using a protein assay kit (product of Bio-Rad Lab.). Further, the cytotoxicity of ACNQ was measured by MTT assay (FIG. 5).
# [9] = tested on: stromal cell line ST-2 derived from mouse bone marrow; assay: ALP activity of ST-2 cells cultured with ACNQ (osteogenesis promoting effect); format: cell-based
# Method: Cells of the stromal cell line ST-2 derived from mouse bone marrow (Udagawa, N. et al.: Endocrinology 125, 1805-1813, 1989) were used as osteoblasts. These cells have similar osteoclast differentiation inducing ability for bone marrow cells as osteoblasts.
# The cells were seeded in the individual wells of a 96-well plate at 4×10^4 cells/well, and cultured for 1 day in RPMI 1640 medium which contained 10% FBS, penicillin G and streptomycin.
# The medium was replaced by the same medium which contained ACNQ, and cultured further for 3 days. After the culture, the ALP activity of cells was assayed.
# as §1
smiles,measurement,setting,value
C/C(=C\CO)CCC[C@H](C)CCC[C@H](C)CCCC(C)C [phytol],osteoclast-formation inhibitory effect,[1],weak in the inhibitory effect
"NC1=C(C(=O)O)C(=O)c2ccccc2C1=O [ACNQ, 2-amino-3-carboxy-1,4-naphthoquinone]",cytotoxicity against osteoclasts,[2],does not exhibit cytotoxicity against osteoclasts
same,bone resorbing activity of osteoclasts (resorption lacunus counts),[3],did not lower the bone resorbing activity of osteoclasts
same,differentiation and maturation of monocytes into osteoclasts (TRAP-positive cells with 3 or more nuclei),"[4]; mouse co-culture with 1α,25(OH)2D3, 6 to 8 days, ACNQ 0.15 to 15 μg/mL (FIG. 10)",inhibited differentiation and maturation
same,formation of osteoclasts,"[4]; mouse co-culture, ACNQ at 1.5 μg/mL and higher (FIG. 10)",considerably inhibited the formation of osteoclasts
same,cytotoxicity (free LDH in culture supernatant),[5],not determined to show cytotoxicity
same,mineralization (Ca and P accumulation),[6]; 10^−5 M to 10^−7 M (FIGS. 6 and 7),promote mineralization concentration-dependently
same,formation of osteoclasts (TRAP-positive polykaryocytes),"[7]; human monocytes with 10^−8 M 1α,25(OH)2D3, ACNQ 10^−8 M to 10^−5 M (FIG. 9)",inhibited the formation of osteoclasts concentration-dependently
same,inhibitory effect on osteoclast formation compared with vitamin K1,"[7]; human monocytes, same concentration as vitamin K1 (FIG. 9)",significantly stronger than that available from vitamin K1
same,"cytotoxicity (MTT assay, viable cell count)",[8],cytotoxicity was not observed at all
same,ACNQ concentration at which ALP activity reached the peak,[9]; 3 days culture (FIG. 4),~1 µg/mL
same,ALP activity of the cells,"[9]; 3 days culture, up to an ACNQ concentration of 1 μg/mL (FIG. 4)",increased concentration-dependently
"C=C1/C(=C\C=C2/CCC[C@]3(C)[C@@H]([C@H](C)CCCC(C)(C)O)CC[C@@H]23)C[C@@H](O)C[C@@H]1O [1α,25(OH)2D3, reference compound]",mineralization (Ca and P accumulation),[6]; 10^−8 M to 10^−9 M (FIGS. 6 and 7),promote mineralization concentration-dependently
